Laboratory results from US11878015B2, “Piperidine-substituted Mnk inhibitors and methods related thereto” (eFFECTOR Therapeutics Inc., priority 2017, dated 2024).
Like-named read-outs stand apart in the source and are kept apart here.

Experiments:
[1] = tested on: Phosphorylated eIF4E; assay: peIF4E signaling cellular assay (CisBio peIF4E HTRF); format: cell-based; conditions: 2 hrs incubation at 37° C., 12-point curve 20 μM to 0.1 nM; read-out: pEI4IE signaling activity
Procedure: Phosphorylated eIF4E is assayed using the CisBio peIF4E HTRF® assay kit (CisBio, catalogue No. 64EF4PEG). Cells are plated in 96-well tissue-culture treated plate in appropriate growth medium (90 μL). Compounds (10×) are diluted using 3-fold serial dilutions in cell culture medium and added to cells. Plates are incubated for 2 hrs at 37° C. The cell supernatant is carefully removed either by aspirating supernatant or by flicking the plate. Immediately 50 μL of supplemented lysis buffer (1×) is added and incubated for at least 30 minutes at room temperature under shaking. After homogenization by pipeting up and down, 16 μL of cell lysate is transferred from the 96-well cell-culture plate to a 384-well small volume white plate. 4 μL of premixed antibody solutions (vol/vol) is prepared in the detection buffer and added. The plate is covered with a plate sealer and incubated overnight at room temperature. The fluorescence emissions at two different wavelengths are read (665 nm and 620 nm) on a Wallac Victor2. Emission ratios are converted into percent inhibitions and imported into GraphPad Prism software. […] IC50 values are determined using a nonlinear regression model available in GraphPad Prism 5.
To this end, IC50 values of less than 0.001 μM are labelled as “+++”, from 0.001 to 0.01 μM are labelled as “++”, and greater than 0.01 μM are labelled as “+” (NA means “not available”).

[2] = High throughput thermodynamic solubility procedure; format: physicochemical; conditions: for solubility in fasted state simulated gastric fluid (FaSSGF), in words: pH value of 1.6
Procedure: In a 96-well plate, 10 mM DMSO stocks (50-100 uL) of each compound were dried under heated nitrogen flow using a SPE-96 plate dryer (upper flow rate=50 L/min, temperature=60° C., lower flow rate=20 L/min, temperature=80° C.). […] Compounds prepared as the free base were assessed in conditions with and without one equivalent of TFA added. The theoretical maximum concentrations of the aqueous solutions were 10 mM. Each well was capped and incubated for a period of 18 hours at room temperature or 37° C. Mixing of the solutions during the incubation period was performed by either shaking the plate at 750 rpm or adding StirStix (stainless steel capillaries) and agitating the mixture using a rotary magnetic tumble stirrer. After the incubation period, aliquots from each well were filtered. Solubility of all samples were quantified following comparison to standards of known concentration by HPLC-UV.

[3] = tested on: PD-1; assay: PD-1 (CD279) expression on PHA/PMA-activated Jurkat T cells, flow cytometry; format: cell-based; conditions: Homo sapiens, percentage of inhibition of PD-1 positive cells at 10 μM, 48 hours
Procedure: To examine the effect of MNK inhibitors on PD-1 expression, Jurkat cells (Clone E6.1, ATCC, transformed T cells) were used, which express PD-1 when activated through T cell receptor (TCR) signaling. Briefly, Jurkat cells were grown in 1×RPMI with 1×Pen/Strep, and 10% FBS, then about 3×10^6 Jurkat cells were activated in presence of 1 μg/mL PHA (Sigma) and 50 ng/mL PMA (Sigma). Test Cells were treated simultaneously with various concentrations of an MNK inhibitor (0, 0.01, 0.1, 1, 3 and 10 μM). After 48 hours, culture supernatants were harvested and examined via sandwich ELISA for the presence of IL-2 using human IL-2 ELISA DuoSet (R&D Systems, Minneapolis, Minn.). The level of PD-1 on Jurkat cells was examined by incubating with human FcR block, then contacted with allophycocyanin (APC) conjugated anti-PD-1 antibody (5 μl per 100 μl volume of test, Biolegend, San Diego, CA) for 25 minutes at 4° C., without washing the cells, fixable dead cell stain (1:10,000; BD Biosciences, San Jose, CA) was added and incubated further for 10 minutes at 4° C. Cells were washed two times with flow buffer, and finally cells were fixed with fixation buffer for 15 minutes at 4° C. After fixation, cells were washed twice with flow buffer and re-suspended in flow buffer and assessed for fluorescence using BD Accuri C6 flow cytometer. Data were analyzed using the C6 cytometer software (BD Biosciences, San Jose, CA) or Attune Nxt Cytometer (Invitrogen, Carlsbad, CA).
Activation of Jurkat T cells with PHA and PMA induced the expression of PD-1 on the cell surface of about 25-30% of the stimulated Jurkat cells as compared to uninduced cells (Unstim) and induced a 1,000-fold increase in IL-2 cytokine production, respectively. […] Lastly, MNK inhibition by various different MNK inhibitors had no effect on cell viability. […] To this end, percentage of inhibition of PD-1 positive cells (10 μM) of more than 50% are labelled as “+++”, from 10% to 50% are labelled as “++”, and less than 10% are labelled as “+” (NA means “not available”).

[4] = Fasted-State Simulated Intestinal Fluid (FaSSIF), pH 6.5, fassif, thermodynamic from solid, Fasted-State Simulated Intestinal Fluid, 18 hours incubation, theoretical maximum 10 mM, read-out: Aqueous Solubility FaSSIF (pH 6.5)
[5] = thermodynamic from solid, deionized water, 18 hours incubation, theoretical maximum 10 mM, read-out: Aqueous Solubility DI H2O

## Cc1cc(Nc2ncnc(N)c2C)c(=O)n2c1C(=O)NC21CCN(CC(C)(C)F)CC1 [Compound 3GG]
[1]
  IC50: 1 to 10 nM

## Cc1cc(Nc2ncnc(N)c2Cl)c(=O)n2c1C(=O)NC21CCN(C)CC1(C)C (stereo not shown) [Compound 3DD]
[1]
  IC50: < 1 nM
[2]; [4]
  solubility at 18 h: 130 µM
[2]; [5]
  solubility at 18 h: 2100 µM
[3]
  inhibition at 10 µM: > 50%

## Cc1cc(Nc2ncnc(N)c2C)c(=O)n2c1C(=O)NC21CCCN(C(C)C)C1 (stereo not shown) [Compound 3Q]
[1]
  IC50: 1 to 10 nM

## Cc1cc(Nc2ncnc(N)c2C)c(=O)n2c1C(=O)NC21CCN(CCC(F)(F)F)CC1 [Compound 3AA]
[1]
  IC50: 1 to 10 nM
[2]; [4]
  solubility at 18 h: 30 µM
[2]; [5]
  solubility at 18 h: 4400 µM
[3]
  inhibition at 10 µM: < 10%

## Cc1cc(Nc2ncnc(N)c2C)c(=O)n2c1C(=O)NC21CCCN(CC2CC2)C1 (stereo not shown) [Compound 3H]
[1]
  IC50: > 10 nM

## Cc1cc(Nc2ncnc(N)c2C)c(=O)n2c1C(=O)NC21CCCN(CCC(F)(F)F)C1 (stereo not shown) [Compound 3E]
[1]
  IC50: > 10 nM

## Cc1cc(Nc2ncnc(N)c2C#N)c(=O)n2c1C(=O)NC21CCCN(C)C1 (racemic) [rac-2F]
[1]
  IC50: 1 to 10 nM
[2]
  solubility in fasted state simulated gastric fluid (FaSSGF), in words: excellent solubility
[2]; [4]
  solubility at 18 h: 79 µg/mL
[3]
  inhibition at 10 µM: 10 to 50%

## Cc1cc(Nc2ncnc(N)c2Cl)c(=O)n2c1C(=O)N[C@@]21CCCNC1 [Compound 3L]
[1]
  IC50: 1 to 10 nM
[2]
  solubility in fasted state simulated gastric fluid (FaSSGF), in words: excellent solubility
[2]; [4]
  solubility at 18 h: 70 µM
[2]; [5]
  solubility at 18 h: 3200 µM
[3]
  inhibition at 10 µM: > 50%

## Cc1cc(Nc2ncnc(N)c2C)c(=O)n2c1C(=O)NC21CNCCC1(C)C (stereo not shown) [Compound 3T]
[1]
  IC50: > 10 nM
[2]; [4]
  solubility at 18 h: 500 µM
[2]; [5]
  solubility at 18 h: 10000 µM
[3]
  inhibition at 10 µM: 10 to 50%

## Cc1cc(Nc2ncnc(N)c2C)c(=O)n2c1C(=O)N[C@@]21CCCN(C)C1 (stereo in doubt) [Compound 1Fb, (S)-6-((6-amino-5-methylpyrimidin-4-yl)amino)-1′,8-dimethyl-2H-spiro[imidazo[1,5-a]pyridine-3,3′-piperidine]-1,5-dione]
[1]
  IC50: 1 to 10 nM
[2]
  solubility in fasted state simulated gastric fluid (FaSSGF), in words: excellent solubility
[2]; [4]
  solubility at 18 h: 88 µg/mL
[2]; [5]
  solubility at 18 h: > 1850 µg/mL
[3]
  inhibition at 10 µM: 10 to 50%

## Cc1cc(Nc2ncnc(N)c2Cl)c(=O)n2c1C(=O)NC21CCCN(C)C1 (stereo not shown) [Compound 3D]
[1]
  IC50: 1 to 10 nM
[2]
  solubility in fasted state simulated gastric fluid (FaSSGF), in words: excellent solubility
[2]; [4]
  solubility at 18 h: 110 µM
[2]; [5]
  solubility at 18 h: 3300 µM

## Cc1cc(Nc2ncnc(N)c2C)c(=O)n2c1C(=O)NC21CCCN(C(C)(C)C)C1 (stereo not shown) [Compound 3V]
[1]
  IC50: > 10 nM
[2]; [4]
  solubility at 18 h: 107 µg/mL

## Cc1cc(Nc2ncnc(N)c2C#N)c(=O)n2c1C(=O)NC21CCCNC1 (stereo not shown) [Compound 3U]
[1]
  IC50: > 10 nM

## Cc1cc(Nc2ncnc(N)c2Cl)c(=O)n2c1C(=O)NC21CCCCC1.Cl [Compound 4A, 6′-((6-amino-5-chloropyrimidin-4-yl)amino)-8′-methyl-2′H-spiro[cyclohexane-1,3′-imidazo[1,5-a]pyridine]-1′,5′-dione Hydrochloride, reference compound]
[2]; [4]
  solubility at 18 h: 45 µM
[2]; thermodynamic from solid, deionized water, 18 hours incubation, theoretical maximum 10 mM
  solubility in DI water at 18 h: 300 µM
[3]
  inhibition at 10 µM: > 50%

## Cc1cc(Nc2ncnc(N)c2Cl)c(=O)n2c1C(=O)NC21CCCN(CCC(F)(F)F)C1 (stereo not shown) [Compound 3F]
[1]
  IC50: 1 to 10 nM
[2]; [5]
  solubility at 18 h: 240 µM

## Cc1cc(Nc2ncnc(N)c2Cl)c(=O)n2c1C(=O)NC21CCN(C)C(C)(C)C1 (stereo not shown) [Compound 3FF]
[1]
  IC50: < 1 nM
[3]
  inhibition at 10 µM: 10 to 50%

## Cc1cc(Nc2ncnc(N)c2Cl)c(=O)n2c1C(=O)N[C@]21CCCN(C)C1 [Compound 3Y]
[1]
  IC50: < 1 nM
[2]
  solubility in fasted state simulated gastric fluid (FaSSGF), in words: excellent solubility

## Cc1cc(Nc2ncnc(N)c2C#N)c(=O)n2c1C(=O)N[C@@]21CCCN(C)C1 (single isomer, unassigned) [Compound 2Fb]
[1]
  IC50: > 10 nM
[2]
  solubility in fasted state simulated gastric fluid (FaSSGF), in words: excellent solubility
[2]; [4]
  solubility at 18 h: 151 µg/mL
[2]; [5]
  solubility at 18 h: 1770 µg/mL
[3]
  inhibition at 10 µM: 10 to 50%

## Cc1cc(Nc2ncnc(N)c2Cl)c(=O)n2c1C(=O)NC21CCN(CCC(F)(F)F)CC1 [Compound 3BB]
[1]
  IC50: < 1 nM
[3]
  inhibition at 10 µM: < 10%

## Cc1cc(Nc2ncnc(N)c2Cl)c(=O)n2c1C(=O)NC21CCN(CCF)CC1 [Compound 3CC]
[1]
  IC50: 1 to 10 nM
[2]; [4]
  solubility at 18 h: 40 µM
[2]; [5]
  solubility at 18 h: 770 µM
[3]
  inhibition at 10 µM: 10 to 50%

## Cc1cc(Nc2ncnc(N)c2Cl)c(=O)n2c1C(=O)NC21CCCN(C(C)C)C1 (stereo not shown) [Compound 3R]
[1]
  IC50: < 1 nM
[2]; [4]
  solubility at 18 h: 68 µg/mL

## Cc1cc(Nc2ncnc(N)c2Cl)c(=O)n2c1C(=O)NC21CCCNC1 (stereo not shown) [Compound 3C]
[1]
  IC50: 1 to 10 nM
[2]; [4]
  solubility at 18 h: 256 µM
[2]; [5]
  solubility at 18 h: 2600 µM
[3]
  inhibition at 10 µM: > 50%

## Cc1cc(Nc2ncnc(N)c2Cl)c(=O)n2c1C(=O)NC21CCN(C2CC2)CC1 [Compound 3Z]
[1]
  IC50: 1 to 10 nM

## Cc1cc(Nc2ncnc(N)c2C)c(=O)n2c1C(=O)NC21CCCN2CCCC21 (stereo not shown) [Compound 3O]
[1]
  IC50: < 1 nM

## Cc1cc(Nc2ncnc(N)c2C)c(=O)n2c1C(=O)NC21CCCN(C)C1 (racemic) [rac-1F, 6-((6-amino-5-methylpyrimidin-4-yl)amino)-1′,8-dimethyl-2H-spiro[imidazo[1,5-a]pyridine-3,3′-piperidine]-1,5-dione]
[1]
  IC50: 1 to 10 nM
[2]
  solubility in fasted state simulated gastric fluid (FaSSGF), in words: excellent solubility
[2]; [4]
  solubility at 18 h: 240 µM
[2]; [5]
  solubility at 18 h: 4300 µM
[3]
  inhibition at 10 µM: 10 to 50%

## Cc1cc(Nc2ncnc(N)c2C)c(=O)n2c1C(=O)NC21CCCN(CC(F)F)C1 (stereo not shown) [Compound 3G]
[1]
  IC50: 1 to 10 nM

## Cc1cc(Nc2ncnc(N)c2C)c(=O)n2c1C(=O)NC21CCN(CC2(F)CC2)CC1 [Compound 3HH]
[1]
  IC50: 1 to 10 nM
[2]; [4]
  solubility at 18 h: 18 µM
[3]
  inhibition at 10 µM: < 10%

## CCN1CCCC2(C1)NC(=O)c1c(C)cc(Nc3ncnc(N)c3C)c(=O)n12 (stereo not shown) [Compound 3N]
[1]
  IC50: 1 to 10 nM

## Cc1cc(Nc2ncnc(N)c2C)c(=O)n2c1C(=O)NC21CCCNC1 (stereo not shown) [Compound 3B]
[1]
  IC50: > 10 nM

## Cc1cc(Nc2ncnc(N)c2Cl)c(=O)n2c1C(=O)NC21CC(C)N(C)C(C)C1 (stereo not shown) [Compound 3EE]
[1]
  IC50: 1 to 10 nM
[3]
  inhibition at 10 µM: > 50%

## Cc1cc(Nc2ncnc(N)c2Cl)c(=O)n2c1C(=O)NC21CCCN2CCCC21 (stereo not shown) [Compound 3P]
[1]
  IC50: < 1 nM

## Cc1cc(Nc2ncnc(N)c2Cl)c(=O)n2c1C(=O)N[C@@]21CCCN(C)C1 [Compound 3X]
[1]
  IC50: < 1 nM
[2]
  solubility in fasted state simulated gastric fluid (FaSSGF), in words: excellent solubility

## Cc1cc(Nc2ncnc(N)c2Cl)c(=O)n2c1C(=O)NC21CCCN(CC2CC2)C1 (stereo not shown) [Compound 3J]
[1]
  IC50: 1 to 10 nM

## Cc1cc(Nc2ncnc(N)c2Cl)c(=O)n2c1C(=O)NC21CCCN(C(C)(C)C)C1 (stereo not shown) [Compound 3W]
[1]
  IC50: 1 to 10 nM
[2]; [4]
  solubility at 18 h: 593 µg/mL

## Cc1cc(Nc2ncnc(N)c2Cl)c(=O)n2c1C(=O)NC21CCCN(CC(F)F)C1 (stereo not shown) [Compound 3I]
[1]
  IC50: < 1 nM
